Reference: patent US6610735B2, “Method, compositions and kits for increasing the oral bioavailability of pharmaceutical agents” (Baker Norton Pharmaceuticals, Inc., priority 1995, dated 2003)
Each block holds one compound with its values, some of them ahead of it.

How the values were obtained:
[1] = Whole blood radioactivity of 3H-etoposide with/without oral cyclosporin (Example 6, NP960102); format: in vivo, rats; conditions: Grp C: CsA 5/PO, then Etoposide 1/PO + CsA 5/PO
[2] = Whole blood radioactivity of oral 3H-etoposide with oral ketoconazole (Example 7, NP960501); format: in vivo, rats; conditions: ketoconazole 2, 10, 50 mg/kg oral
[3] = male, Sprague-Dawley, rat, in vivo
[4] = tested on: highly resistant human KB carcinoma cells; conditions: cited from earlier work
[5] = Serum paclitaxel after IV or oral paclitaxel with/without oral cyclosporin (Example 1); format: in vivo, Sprague Dawley rats
[6] = rat, in vivo, iv
[7] = rat, in vivo, po
[8] = in vivo, po; cited from earlier work
[9] = Total radioactivity and unchanged paclitaxel pharmacokinetics, rats n = 10 (Tables 5A, 5B)
[10] = Whole blood and urine radioactivity after radiolabeled paclitaxel with/without cyclosporin (Example 3)

- F% [1]: about 96%
SMILES: COc1cc([C@@H]2c3cc4c(cc3[C@@H](O[C@@H]3O[C@@H]5CO[C@@H](C)O[C@H]5[C@H](O)[C@H]3O)[C@H]3COC(=O)[C@H]23)OCO4)cc(OC)c1O [Etoposide, etoposide]

SMILES: CC(=O)N1CCN(c2ccc(OCC3COC(Cn4ccnc4)(c4ccc(Cl)cc4Cl)O3)cc2)CC1 (centres unmarked) [Ketoconazole, ketoconazole]
- effect on oral absorption of etoposide compared to etoposide alone [2]: did not enhance the oral absorption of etoposide
- dose-response of oral absorption of radioactivity [3]: no further increase in oral absorption of radioactivity
- reversal of MDR [4]: reverse MDR

SMILES: CC(=O)O[C@H]1C(=O)[C@@]2(C)[C@H]([C@H](OC(=O)c3ccccc3)[C@]3(O)C[C@H](OC(=O)[C@H](O)[C@@H](NC(=O)c4ccccc4)c4ccccc4)C(C)=C1C3(C)C)[C@]1(OC(C)=O)CO[C@@H]1C[C@@H]2O [Paclitaxel, paclitaxel]
- bioavailability of the paclitaxel in serum ([5]; oral paclitaxel in the absence of cyclosporin): less than 1%
- bioavailability of the paclitaxel in serum ([5]; third group: cyclosporin 1 h prior to and with oral paclitaxel): 6-7%
- % Dose in urine (4-24 hr) [6]: 2.2 % Dose
- F (%) Based on AUC0-00, total radioactivity [7]: 16.4%
- absorbed when administered orally [8]: less than 1%
- AUC0-24hr, unchanged paclitaxel ([9]; PO + CsA): 4270 ng·h/mL
- AUC0-[…], unchanged paclitaxel ([9]; PO + CsA): 5410 ng·h/mL
- AUC0-[…], unchanged paclitaxel ([9]; PO Dose): 349 ng·h/mL
- AUC0-24hr, unchanged paclitaxel ([9]; PO Dose 9 mg/kg): 314 ng·h/mL
- AUC0-00, total radioactivity ([9]; Paclitaxel Oral 9 mg/kg): 4.5 μg equiv.hr/mL
- AUC0-24hr, total radioactivity ([9]; Paclitaxel Oral 9 mg/kg): 1.4 μg equiv.hr/mL
- AUC0-00, total radioactivity ([9]; Paclitaxel Oral + CsA): 15.0 μg equiv.hr/mL
- AUC0-24hr, total radioactivity ([9]; Paclitaxel Oral + CsA 5 mg/kg 1 hr prior to and concomitantly): 8.1 μg equiv.hr/mL
- AUC0-24, total radioactivity in blood ([10]; PO (B)): 3.2 μg eq × hr/ml
- Tmax ([10]; PO (B) column as printed): 25 h
- AUC0-24, total radioactivity in blood ([10]; PO+CsA (C), CsA 1 hr prior to and simultaneously): 12.1 μg eq × hr/ml
